This is an account of results in US12310975B2, “Modulators of BCL6 proteolysis and associated methods of use” (Arvinas Operations, Inc., priority 2019, dated 2025).

The assay addresses BCL6 (Homo sapiens (Human), UniProt P41182). In words: Immunofluorescence high content imaging of BCL6 degradation in T47D cells. Conditions: T47D cells. In kind it is cell-based. Put shortly:
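Following a 3-day incubation with serially diluted bifunctional compounds (final top 0.1 or 1 μM), T47D cells were PFA-fixed and immunostained for BCL6. Nuclear BCL6 signal was captured on a high-content imager.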
Turning to `CNC(=O)COc1cc2cc(Nc3nc(N4CCC(CN5CCC(c6cccc7c6C(=O)N(C6CCC(=O)NC6=O)C7=O)CC5)CC4)ncc3Cl)ccc2n(C(C)C)c1=O` (stereo not shown) [compound 386, 2-{[6-({5-chloro-2-[4-({4-[2-(2,6-dioxopiperidin-3-yl)-1,3-dioxo-2,3-dihydro-1H-isoindol-4-yl]piperidin-1-yl}methyl)piperidin-1-yl]pyrimidin-4-yl}amino)-2-oxo-1-(propan-2-yl)-1,2-dihydroquinolin-3-yl]oxy}-N-methylacetamide], the Dmax lay within 50 to 70% and the IC50 was under 10 nM. Regarding `CNC(=O)COc1cc2cc(Nc3nc(N4C[C@@H](C)N(CC5CCN(c6cccc7c6C(=O)N(C6CCC(=O)NC6=O)C7=O)CC5)[C@@H](C)C4)ncc3Cl)ccc2n(C(C)C)c1=O` (stereo partly drawn) [compound 387, 2-{[6-({5-chloro-2-[(3R,5S)-4-({1-[2-(2,6-dioxopiperidin-3-yl)-1,3-dioxo-2,3-dihydro-1H-isoindol-4-yl]piperidin-4-yl}methyl)-3,5-dimethylpiperazin-1-yl]pyrimidin-4-yl}amino)-2-oxo-1-(propan-2-yl)-1,2-dihydroquinolin-3-yl]oxy}-N-methylacetamide], the Dmax was 50 to 70% and the IC50 is under 10 nM.

Regarding `CNC(=O)COc1cc2cc(Nc3nc(N4CCN(CC5CCN(c6ccc7c(c6)CN(C6CCC(=O)NC6=O)C7=O)CC5)CC4)ncc3Cl)ccc2n(C(C)C)c1=O` (stereo not shown) [compound 388, 2-{[6-({5-chloro-2-[4-({1-[2-(2,6-dioxopiperidin-3-yl)-1-oxo-2,3-dihydro-1H-isoindol-5-yl]piperidin-4-yl}methyl)piperazin-1-yl]pyrimidin-4-yl}amino)-2-oxo-1-(propan-2-yl)-1,2-dihydroquinolin-3-yl]oxy}-N-methylacetamide], the Dmax lay within 50 to 70% and the IC50 was under 10 nM. `CC[C@@H]1CN(c2ncc(Cl)c(Nc3ccc4c(c3)cc(OCC(=O)NC)c(=O)n4C(C)C)n2)C[C@@H](COc2ccc3c(c2)C(=O)N(C2CCC(=O)NC2=O)C3=O)O1` (stereo partly drawn) [compound 389, 2-{[6-({5-chloro-2-[(2S,6R)-2-({[2-(2,6-dioxopiperidin-3-yl)-1,3-dioxo-2,3-dihydro-1H-isoindol-5-yl]oxy}methyl)-6-ethylmorpholin-4-yl]pyrimidin-4-yl}amino)-2-oxo-1-(propan-2-yl)-1,2-dihydroquinolin-3-yl]oxy}-N-methylacetamide] had a Dmax of under 50% and an IC50 of 10 to 50 nM. In the same order, the values of `CNC(=O)COc1cc2cc(Nc3nc(N4CCC(OC5CC6(CCN(c7ccc8c(c7)C(=O)N(C7CCC(=O)NC7=O)C8=O)CC6)C5)CC4)ncc3Cl)ccc2n(C(C)C)c1=O` (stereo not shown) [compound 390, 2-{[6-({5-chloro-2-[4-({7-[2-(2,6-dioxopiperidin-3-yl)-1,3-dioxo-2,3-dihydro-1H-isoindol-5-yl]-7-azaspiro[3.5]nonan-2-yl}oxy)piperidin-1-yl]pyrimidin-4-yl}amino)-2-oxo-1-(propan-2-yl)-1,2-dihydroquinolin-3-yl]oxy}-N-methylacetamide] are 50 to 70% and under 10 nM. The compound `CNC(=O)COc1cc2cc(Nc3nc(N4CCC(OC5CC6(CCN(c7cccc8c7C(=O)N(C7CCC(=O)NC7=O)C8=O)CC6)C5)CC4)ncc3Cl)ccc2n(C(C)C)c1=O` (stereo not shown) [compound 391, 2-{[6-({5-chloro-2-[4-({7-[2-(2,6-dioxopiperidin-3-yl)-1,3-dioxo-2,3-dihydro-1H-isoindol-4-yl]-7-azaspiro[3.5]nonan-2-yl}oxy)piperidin-1-yl]pyrimidin-4-yl}amino)-2-oxo-1-(propan-2-yl)-1,2-dihydroquinolin-3-yl]oxy}-N-methylacetamide] returned a Dmax of at least 70% and an IC50 of under 10 nM. Regarding `CNC(=O)COc1cc2cc(Nc3nc(N4CCC5(CC4)CC(OC4CCN(c6ccc7c(c6)C(=O)N(C6CCC(=O)NC6=O)C7=O)CC4)C5)ncc3Cl)ccc2n(C(C)C)c1=O` (stereo not shown) [compound 392, 2-{[6-({5-chloro-2-[2-({1-[2-(2,6-dioxopiperidin-3-yl)-1,3-dioxo-2,3-dihydro-1H-isoindol-5-yl]piperidin-4-yl}oxy)-7-azaspiro[3.5]nonan-7-yl]pyrimidin-4-yl}amino)-2-oxo-1-(propan-2-yl)-1,2-dihydroquinolin-3-yl]oxy}-N-methylacetamide], the IC50 is at least 100 nM. The compound `CNC(=O)COc1cc2cc(Nc3nc(N4CCC5(CC4)CC(OC4CCN(c6cccc7c6C(=O)N(C6CCC(=O)NC6=O)C7=O)CC4)C5)ncc3Cl)ccc2n(C(C)C)c1=O` (stereo not shown) [compound 393, 2-{[6-({5-chloro-2-[2-({1-[2-(2,6-dioxopiperidin-3-yl)-1,3-dioxo-2,3-dihydro-1H-isoindol-4-yl]piperidin-4-yl}oxy)-7-azaspiro[3.5]nonan-7-yl]pyrimidin-4-yl}amino)-2-oxo-1-(propan-2-yl)-1,2-dihydroquinolin-3-yl]oxy}-N-methylacetamide] came in with a Dmax of at least 70% and an IC50 of under 10 nM. As for `CC[C@H]1CN(c2ncc(Cl)c(Nc3ccc4c(c3)cc(OCC(=O)NC)c(=O)n4C(C)C)n2)C[C@@H](COc2ccc3c(c2)C(=O)N(C2CCC(=O)NC2=O)C3=O)O1` (stereo partly drawn) [compound 394, 2-{[6-({5-chloro-2-[(2S,6S)-2-({[2-(2,6-dioxopiperidin-3-yl)-1,3-dioxo-2,3-dihydro-1H-isoindol-5-yl]oxy}methyl)-6-ethylmorpholin-4-yl]pyrimidin-4-yl}amino)-2-oxo-1-(propan-2-yl)-1,2-dihydroquinolin-3-yl]oxy}-N-methylacetamide], the Dmax was 50 to 70% and the IC50 was under 10 nM. `CNC(=O)CCN1Cc2cc(Nc3nc(N4CCN(CC5CCN(c6ccc7c(c6)C(=O)N(C6CCC(=O)NC6=O)C7=O)CC5)CC4)ncc3Cl)ccc2CC1=O` (stereo not shown) [compound 395, 3-[7-({5-chloro-2-[4-({1-[2-(2,6-dioxopiperidin-3-yl)-1,3-dioxo-2,3-dihydro-1H-isoindol-5-yl]piperidin-4-yl}methyl)piperazin-1-yl]pyrimidin-4-yl}amino)-3-oxo-1,2,3,4-tetrahydroisoquinolin-2-yl]-N-methylpropanamide] came in with an IC50 of 1000 nM. Consider `CNC(=O)COc1cc2cc(Nc3nc(N4CCN(C(C)(C)C5CCN(c6cccc(C(=O)NC7CCC(=O)NC7=O)[n+]6[O-])CC5)CC4)ncc3Cl)ccc2n(C)c1=O` (stereo not shown) [compound 396, 2-[4-(2-{4-[5-chloro-4-({1-methyl-3-[(methylcarbamoyl)methoxy]-2-oxo-1,2-dihydroquinolin-6-yl}amino)pyrimidin-2-yl]piperazin-1-yl}propan-2-yl)piperidin-1-yl]-6-[(2,6-dioxopiperidin-3-yl)carbamoyl]pyridin-1-ium-1-olate], for which the Dmax was under 50% and the half-maximal inhibitory concentration (IC50) fell in the range of 10 to 50 nM.

Regarding `CNC(=O)COc1cc2cc(Nc3nc(N4CCN(CC5CCN(c6cccc(C(=O)NC7CCC(=O)NC7=O)[n+]6[O-])CC5)CC4)ncc3Cl)ccc2n(C(C)C)c1=O` (stereo not shown) [compound 397, 2-[4-({4-[5-chloro-4-({3-[(methylcarbamoyl)methoxy]-2-oxo-1-(propan-2-yl)-1,2-dihydroquinolin-6-yl}amino)pyrimidin-2-yl]piperazin-1-yl}methyl)piperidin-1-yl]-6-[(2,6-dioxopiperidin-3-yl)carbamoyl]pyridin-1-ium-1-olate], the Dmax is under 50% and the IC50 was 10 to 50 nM.

Broadly, the Dmax is the greatest extent of degradation seen. One may read the IC50 as the concentration needed to halve the response being measured. A low value points to higher potency.
